From patent publication US9221826B2, “Pyrrolopyridazine JAK3 inhibitors and their use for the treatment of inflammatory and autoimmune diseases” (Bristol-Myers Squibb Company, priority 2011, dated 2015)

Assays:
Format in all cases: biochemical
GST-JAK1 enzyme = GST-JAK1 enzyme (Homo sapiens, UniProt P23458); assay: JAK1 Kinase Assay Protocol; settings: Caliper LabChip assay, ATP 100 μM, fluoresceinated peptide; read-out: LLE_JAK1 (IC50)
Description: The assay reactions were performed in U-bottom 384-well plates. The final assay volume was 30 μl prepared from 15 μl additions of enzyme and substrates (fluoresceinated peptide and ATP) and test compounds in assay buffer (20 mM HEPES pH 7.4, 10 mM MgCl2, 25 mM beta-glycerol phosphate, 0.015% Brij35 and 4 mM DTT). The reaction was initiated by the combination of GST-JAK1 enzyme with substrates and test compounds. The reactions were incubated at room temperature for 3 hours and terminated by adding 60 μl of 35 mM EDTA to each sample. Each reaction mixture was analyzed on the Caliper LabChip 3000 (Caliper, Hopkinton, Mass.) by electrophoretic separation of the fluorescent substrate and phosphorylated product. […] The final concentration of reagents in the assays was: ATP, 100 μM; fluoresceinated peptide, 1.5 μM; GST-JAK1, 12.5 nM; and DMSO, 1.6%. […] Compounds were dissolved at 10 mM in dimethylsulfoxide (DMSO) and evaluated at eleven concentrations. IC50 values were derived by non-linear regression analysis.

GST-JAK3 enzyme = target: T1, GST-JAK3 enzyme (Homo sapiens, UniProt P52333); assay: JAK3 Kinase Assay Protocol (Caliper); settings: Caliper LabChip assay, ATP 8 μM, fluoresceinated peptide; read-out: LLE_JAK3_CAL (IC50)
T1 sequence (P52333 1-1124): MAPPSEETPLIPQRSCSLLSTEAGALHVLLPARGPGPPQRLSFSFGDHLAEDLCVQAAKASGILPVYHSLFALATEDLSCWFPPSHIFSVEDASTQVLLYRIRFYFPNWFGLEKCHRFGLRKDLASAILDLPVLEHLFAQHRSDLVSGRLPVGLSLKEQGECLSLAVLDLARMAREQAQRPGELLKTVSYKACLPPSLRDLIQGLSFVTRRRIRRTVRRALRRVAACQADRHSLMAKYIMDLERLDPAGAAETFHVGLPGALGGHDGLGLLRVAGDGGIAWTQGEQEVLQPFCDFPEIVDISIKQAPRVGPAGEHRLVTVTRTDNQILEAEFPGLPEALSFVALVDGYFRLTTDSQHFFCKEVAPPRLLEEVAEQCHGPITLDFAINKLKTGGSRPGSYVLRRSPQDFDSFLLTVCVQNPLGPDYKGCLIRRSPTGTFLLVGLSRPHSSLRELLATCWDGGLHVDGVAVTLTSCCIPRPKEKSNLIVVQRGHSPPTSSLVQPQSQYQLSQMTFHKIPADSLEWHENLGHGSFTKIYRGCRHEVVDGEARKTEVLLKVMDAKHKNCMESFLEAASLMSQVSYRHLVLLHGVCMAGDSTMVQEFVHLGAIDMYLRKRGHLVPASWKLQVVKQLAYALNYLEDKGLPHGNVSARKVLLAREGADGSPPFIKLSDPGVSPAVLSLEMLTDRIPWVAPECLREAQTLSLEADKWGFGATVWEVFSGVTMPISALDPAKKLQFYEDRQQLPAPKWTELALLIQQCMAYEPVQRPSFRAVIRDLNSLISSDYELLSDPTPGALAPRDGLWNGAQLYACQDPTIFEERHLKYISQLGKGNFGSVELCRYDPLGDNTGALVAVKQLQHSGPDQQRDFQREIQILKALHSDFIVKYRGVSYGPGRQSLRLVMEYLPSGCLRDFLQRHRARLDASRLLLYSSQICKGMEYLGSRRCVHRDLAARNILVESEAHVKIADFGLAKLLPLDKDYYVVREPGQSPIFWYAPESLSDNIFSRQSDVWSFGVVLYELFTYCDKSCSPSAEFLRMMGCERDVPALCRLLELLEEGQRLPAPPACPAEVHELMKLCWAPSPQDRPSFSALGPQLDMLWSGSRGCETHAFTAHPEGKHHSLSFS
Description: The assay reactions were performed in U-bottom 384-well plates. […] The reaction was initiated by the combination of GST-JAK3 enzyme with substrates and test compounds. The reactions were incubated at room temperature for 3 hours and terminated by adding 60 μl of 35 mM EDTA to each sample. Each reaction mixture was analyzed on the Caliper LabChip 3000 (Caliper, Hopkinton, Mass.) by electrophoretic separation of the fluorescent substrate and phosphorylated product. […] Compounds were dissolved at 10 mM in dimethylsulfoxide (DMSO) and evaluated at eleven concentrations. IC50 values were derived by non-linear regression analysis.

JAK3 enzyme = target: T2, JAK3 enzyme (Homo sapiens, UniProt P52333); assay: JAK3 Kinase Assay Protocol (Filter); settings: 33P γ-ATP, 8 μM ATP, CSKtide substrate, read-out: LLE_JAK3_FB (IC50)
T2 sequence (P52333 1-1124): T1 sequence (P52333 1-1124)
Description: Kinase reactions consisted of 5 ng of JAK3 enzyme, 30 uM CSKtide substrate, 0.2 μCi ^33P γ-ATP, 8 μM ATP in 30 μl kinase buffer (50 mM Hepes, pH 8.0, 10 mM MgCl2, 1 mM EGTA, 2 mM DTT). Reactions were incubated for 30 minutes at room temperature and stopped by the addition of cold trichloroacetic acid (TCA) to a final concentration of 15%. TCA precipitates were collected onto 384 well phosphocellulose filters (Millipore) using a Platemate to transfer the reaction mixture, washed on an EMBLA plate washer and the filters were quantitated using a TopCount 384-well liquid scintillation counter. […] Compounds were dissolved at 10 mM in dimethylsulfoxide (DMSO) and evaluated at six concentrations, each in triplicate. The final concentration of DMSO in the assay equaled 2%. IC50 values were derived by non-linear regression analysis.

GST-JAK1 enzyme, sequence (P23458 whole entry): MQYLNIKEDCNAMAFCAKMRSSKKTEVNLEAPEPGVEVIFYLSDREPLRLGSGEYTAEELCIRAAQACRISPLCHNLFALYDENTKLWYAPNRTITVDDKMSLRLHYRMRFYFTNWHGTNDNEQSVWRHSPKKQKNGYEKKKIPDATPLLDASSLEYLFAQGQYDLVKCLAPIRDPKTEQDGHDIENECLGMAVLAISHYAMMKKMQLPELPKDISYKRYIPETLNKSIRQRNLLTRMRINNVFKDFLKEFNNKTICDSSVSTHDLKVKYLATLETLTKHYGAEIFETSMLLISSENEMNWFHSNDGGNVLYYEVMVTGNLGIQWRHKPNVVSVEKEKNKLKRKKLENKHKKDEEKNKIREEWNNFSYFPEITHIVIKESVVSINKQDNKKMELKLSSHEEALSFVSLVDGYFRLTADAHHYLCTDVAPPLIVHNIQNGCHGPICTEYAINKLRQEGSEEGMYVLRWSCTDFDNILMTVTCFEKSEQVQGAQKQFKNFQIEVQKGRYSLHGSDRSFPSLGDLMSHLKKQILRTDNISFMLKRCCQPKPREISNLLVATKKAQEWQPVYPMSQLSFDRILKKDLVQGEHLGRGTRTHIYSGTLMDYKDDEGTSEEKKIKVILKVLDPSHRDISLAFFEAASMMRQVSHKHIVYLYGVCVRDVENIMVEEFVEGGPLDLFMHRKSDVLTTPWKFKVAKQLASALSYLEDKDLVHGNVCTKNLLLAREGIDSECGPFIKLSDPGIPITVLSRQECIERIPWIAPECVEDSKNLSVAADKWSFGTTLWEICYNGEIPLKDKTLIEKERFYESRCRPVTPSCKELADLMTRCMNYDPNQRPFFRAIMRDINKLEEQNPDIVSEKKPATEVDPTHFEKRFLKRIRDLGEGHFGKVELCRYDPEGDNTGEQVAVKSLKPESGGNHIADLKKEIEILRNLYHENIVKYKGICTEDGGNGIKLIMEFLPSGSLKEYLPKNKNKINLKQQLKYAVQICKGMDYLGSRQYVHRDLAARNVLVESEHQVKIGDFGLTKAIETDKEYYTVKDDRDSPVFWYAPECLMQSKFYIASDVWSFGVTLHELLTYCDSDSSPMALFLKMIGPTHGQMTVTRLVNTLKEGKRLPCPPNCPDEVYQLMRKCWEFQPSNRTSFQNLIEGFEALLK

SMILES	IC50 (GST-JAK1 enzyme)	IC50 (GST-JAK3 enzyme)	IC50 (JAK3 enzyme)
NC(=O)c1cnn2cc(-c3ccccc3)cc2c1N[C@H](C(N)=O)c1ccccc1 [Example 125]	260 nM	66.7 nM	18.6 nM
CC(Nc1c(C(N)=O)cnn2cc(-c3ccncc3)cc12)c1cc(F)ccc1F (racemic) [Example 181, (+/−)-4-((1-(2,5-difluorophenyl)ethyl)amino)-6-(4-pyridinyl)pyrrolo[1,2-b]pyridazine-3-carboxamide]	106 nM	96.4 nM	49.2 nM
C[C@@H](Nc1c(C(N)=O)cnn2cc(N3CCCC3=O)cc12)C(C)(C)C [Example 2]	43 nM	3.7 nM	0.9 nM
COc1ccc(-c2cc3c(N[C@H](C)c4ccccc4F)c(C(N)=O)cnn3c2)cn1 [Example 180, 4-(((1R)-1-(2-fluorophenyl)ethyl)amino)-6-(6-methoxy-3-pyridinyl)pyrrolo[1,2-b]pyridazine-3-carboxamide]	1200 nM	60.9 nM	13.5 nM
C[C@@H](Nc1c(C(N)=O)cnn2cc(-c3cccc(CN)c3)cc12)C(C)(C)F [Example 68, 6-(3-(aminomethyl)phenyl)-4-(((1R)-2-fluoro-1,2-dimethylpropyl)amino) pyrrolo[1,2-b]pyridazine-3-carboxamide]	–	1 nM	0.7 nM
NC(=O)c1cnn2cc(-c3ccccc3)cc2c1NCC1(CO)CC1 [Example 189, 4-((1-(hydroxymethyl)cyclopropyl)methylamino)-6-phenylpyrrolo[1,2-b]pyridazine-3-carboxamide]	21.5 nM	8.5 nM	19.1 nM
CC1CCN(c2cc3c(N[C@H](C)C(C)(C)F)c(C(N)=O)cnn3c2)C1=O (mixture of isomers) [Example 134]	40.1 nM	8 nM	8.7 nM
C[C@@H](Nc1c(C(N)=O)cnn2cc(-c3ccn[nH]3)cc12)C(C)(C)F [Example 43]	8.8 nM	2.5 nM	1.2 nM
CSc1nnc(-c2cc3c(N[C@H](C)C4CC4)c(C(N)=O)cnn3c2)o1 [Example 127, (R)-4-(1-cyclopropylethylamino)-6-(5-(methylthio)-1,3,4-oxadiazol-2-yl)pyrrolo[1,2-b]pyridazine-3-carboxamide]	160 nM	23.4 nM	26 nM
C[C@@H](Nc1c(C(N)=O)cnn2cc(-c3ccc(N)nc3)cc12)C1CC1 [Example 200]	4.8 nM	2.2 nM	1.1 nM
C[C@@H](Nc1c(C(N)=O)cnn2cc(-c3cccc(C(O)CO)c3)cc12)C1CC1 (mixture of isomers) [Example 187, (R)-4-(1-cyclopropylethylamino)-6-(3-(1,2-dihydroxyethyl)phenyl)pyrrolo[1,2-b]-pyridazine-3-carboxamide]	3 nM	1.3 nM	1 nM
C[C@@H](Nc1c(C(N)=O)cnn2cc(N3CCCCS3(=O)=O)cc12)C(C)(C)C [Example 17]	141 nM	22.4 nM	21.6 nM
COc1ccc(-c2cc3c(N[C@H](C)C(C)(C)c4nc(C(N)=O)co4)c(C(N)=O)cnn3c2)cc1 [Example 219]	0.6 nM	1.2 nM	–
C[C@@H](N)c1cccc(-c2cc3c(N[C@H](C)C(C)(C)F)c(C(N)=O)cnn3c2)c1 [Example 62]	4 nM	1.8 nM	0.7 nM
COc1ccc(-c2cc3c(N[C@H](C)C(O)C4CC4)c(C(N)=O)cnn3c2)cn1 (single isomer, unassigned; isomer a) [Example 210]	3.6 nM	0.8 nM	0.5 nM
C[C@@H](O)[C@@H](CO)Nc1c(C(N)=O)cnn2cc(-c3ccccc3)cc12 [Example 196, 4-((2R,3R)-1,3-dihydroxybutan-2-ylamino)-6-phenylpyrrolo[1,2-b]pyridazine-3-carboxamide]	5.8 nM	3 nM	1.3 nM
CC(C)Nc1c(C(N)=O)cnn2cc(-c3ccc4c(c3)OCO4)cc12 [Example 149]	–	23.8 nM	–
CC(C)Nc1c(C(N)=O)cnn2cc(-c3ccnc4ccccc34)cc12 [Example 153]	402 nM	223 nM	178 nM
CNc1nnc(-c2cc3c(N[C@H](C)C4CC4)c(C(N)=O)cnn3c2)o1 [Example 195, (R)-4-(1-cyclopropylethylamino)-6-(5-(methylamino)-1,3,4-oxadiazol-2-yl)pyrrolo[1,2-b]pyridazine-3-carboxamide]	73.7 nM	8.4 nM	5.3 nM
CNc1c(C(N)=O)cnn2cc(-c3cccc(CC#N)c3)cc12 [Example 191, 6-(3-(cyanomethyl)phenyl)-4-(methylamino)pyrrolo[1,2-b]pyridazine-3-carboxamide]	72.3 nM	40.6 nM	88 nM
C[C@@H](Nc1c(C(N)=O)cnn2cc(N3CCNC3=O)cc12)C(C)(C)C [Example 29]	46.1 nM	5.3 nM	1.2 nM
C[C@@H](Nc1c(C(N)=O)cnn2cc(-c3ccccc3)cc12)C(C)(C)C(N)=O [Example 194, (R)-4-(4-amino-3,3-dimethyl-4-oxobutan-2-ylamino)-6-phenylpyrrolo[1,2-b]-pyridazine-3-carboxamide]	2.8 nM	1 nM	1.3 nM
C[C@@H](Nc1c(C(N)=O)cnn2cc(-c3ccc(C#N)cc3)cc12)C(C)(C)c1nc(C(N)=O)co1 [Example 222]	0.4 nM	0.9 nM	–
CC[C@@H](c1nc(C(N)=O)co1)[C@@H](C)Nc1c(C(N)=O)cnn2cc(-c3ccc(OC)nc3)cc12 [Example 224, 2-((2R,3R)-2-((3-carbamoyl-6-(6-methoxypyridin-3-yl)pyrrolo[1,2-b]pyridazin-4-yl)amino)pentan-3-yl)oxazole-4-carboxamide]	0.5 nM	0.3 nM	–
CC(Nc1c(C(N)=O)cnn2cc(-c3ccccc3)cc12)C(C)(C)C(N)=O (racemic) [Example 193, (+/−)-4-(4-amino-3,3-dimethyl-4-oxobutan-2-ylamino)-6-phenylpyrrolo[1,2-b]-pyridazine-3-carboxamide]	2.7 nM	–	1.8 nM
C[C@@H](O)[C@@H](COP(=O)(O)O)Nc1c(C(N)=O)cnn2cc(-c3ccccc3)cc12 [Example 240, (2R,3R)-2-((3-carbamoyl-6-phenylpyrrolo[1,2-b]pyridazin-4-yl)amino)-3-hydroxybutyl dihydrogen phosphate, disodium]	2200 nM	880 nM	–
